In patent US10544099B2, “Inhibitors of indoleamine 2,3-dioxygenase and methods of their use” (BRISTOL-MYERS SQUIBB COMPANY, priority 2016, dated 2020):

What follows are compounds tested against T1, human IDO1 (Homo sapiens, UniProt P14902) (assay: HEK Human IDO-1 cell-based IDO inhibition assay). Conditions: human IDO1/HEK293 cells, 20 hours incubation, kynurenine absorbance at 490 nm; read-out: HEK Human IDO-1 Bio Activity.
T1 construct: expressed in transfected cells
Method: HEK293 cells were transfected with a pCDNA-based mammalian expression vector harboring human IDO1 cDNA (NM 002164.2) by electroporation. They were cultured in medium (DMEM with 10% FBS) containing 1 mg/ml G418 for two weeks. Clones of HEK293 cells that stably expressed human IDO1 protein were selected and expanded for IDO inhibition assay.
The human IDO1/HEK293 cells were seeded at 10,000 cells per 50 μL per well with RPMI/phenol red free media contains 10% FBS in a 384-well black wall clear bottom tissue culture plate (Matrix Technologies LLC) 100 nL of certain concentration of compound was then added to each well using ECHO liquid handling systems. The cells were incubated for 20 hours in 37° C. incubator with 5% CO2.
The compound treatments were stopped by adding trichloroacetic acid (Sigma-Aldrich) to a final concentration at 0.2%. The cell plate was further incubated at 50° C. for 30 minute. The equal volume supernatant (20 μL) and 0.2% (w/v) Ehrlich reagent (4-dimethylaminobenzaldehyde, Sigma-Aldrich) in glacial acetic acid were mixed in a new clear bottom 384-well plate. This plate was then incubated at room temperature for 30 minute. The absorbance at 490 nm was measured on Envision plate reader.
Compound IC50 values were calculated using the counts of 500 nM of a reference standard treatment as one hundred percent inhibition, and counts of no compound but DMSO treatment as zero percent inhibition.

T1 sequence (P14902 whole entry): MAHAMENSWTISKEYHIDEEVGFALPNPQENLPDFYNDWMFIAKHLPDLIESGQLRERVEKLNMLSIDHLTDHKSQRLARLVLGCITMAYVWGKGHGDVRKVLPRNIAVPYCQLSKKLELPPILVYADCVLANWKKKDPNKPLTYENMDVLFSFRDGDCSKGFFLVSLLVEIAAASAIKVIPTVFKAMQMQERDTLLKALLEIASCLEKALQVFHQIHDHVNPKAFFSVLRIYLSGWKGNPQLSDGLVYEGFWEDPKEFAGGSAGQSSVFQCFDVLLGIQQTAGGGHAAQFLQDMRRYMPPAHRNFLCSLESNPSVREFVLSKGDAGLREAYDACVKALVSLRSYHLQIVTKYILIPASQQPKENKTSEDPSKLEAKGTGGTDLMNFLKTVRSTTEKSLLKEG

SMILES | IC50
Cc1ccc(NC(=O)N[C@H](C)[C@H]2CC[C@@H](c3ccnc4ccc(F)cc43)CC2)cc1 [Example 4, 1-((R)-1-((1s,4s)-4-(6-Fluoroquinolin-4-yl)cyclohexyl)ethyl)-3-p-tolylurea] | < 50 nM
Cc1ccc(NC(=O)N[C@H](C)[C@H]2CC[C@@H](c3ccnc4ccc(F)cc43)CC2)cc1Cl [Example 7, 1-(3-chloro-4-methylphenyl)-3-((R)-1-((1s,4S)-4-(6-fluoroquinolin-4-yl)cyclohexyl)ethyl)urea] | < 50 nM
Cc1ccc(OC(=O)N[C@H](C)[C@H]2CC[C@@H](c3ccnc4ccc(F)cc43)CC2)cc1 [Example 9] | < 250 nM
C[C@@H](NC(=O)Oc1ccc(F)cc1)[C@H]1CC[C@@H](c2ccnc3ccc(F)cc32)CC1 [Example 10, 4-fluorophenyl (R)-1-((1s,4S)-4-(6-fluoroquinolin-4-yl)cyclohexyl)ethylcarbamate] | < 250 nM
COc1ccc(OC(=O)N[C@H](C)[C@H]2CC[C@@H](c3ccnc4ccc(F)cc43)CC2)cc1 [Example 11, 4-methoxyphenyl (R)-1-((1s,4S)-4-(6-fluoroquinolin-4-yl)cyclohexyl)ethylcarbamate] | < 50 nM

Second part, the compound after the results:

IC50 | SMILES
< 2000 nM | CC(NC(=O)Nc1ccc(Cl)cc1)C1CCN(c2ccnc3ccc(F)cc23)CC1 (racemic) [Example 1, (±)-1-(4-Chlorophenyl)-3-(1-(1-(6-fluoroquinolin-4-yl)piperidin-4-yl)ethyl)urea]
< 2000 nM | O=C(Nc1ccc(Cl)cc1)NC1CC12CCC(c1ccnc3ccc(F)cc13)CC2 (racemic) [Example 2, (±)-1-(4-chlorophenyl)-3-(6-(6-fluoroquinolin-4-yl)spiro [2.5]octan-1-yl)urea]
< 50 nM | CC[C@@H](NC(=O)Nc1ccc(Cl)cc1)[C@H]1CC[C@H](Oc2ccnc3ccccc23)CC1 (racemic) [Example 3, (±)-1-(4-chlorophenyl)-3-((R)-1-((trans)-4-(quinolin-4-yloxy)cyclohexyl)propyl)urea]
< 50 nM | C[C@@H](NC(=O)Nc1ccc(Cl)cc1)[C@H]1CC[C@@H](c2ccnc3ccc(F)cc32)CC1 [Example 5, 1-(4-chlorophenyl)-3-((R)-1-((1s,4S)-4-(6-fluoroquinolin-4-yl)cyclohexyl)ethyl)urea]
< 50 nM | CCOc1ccc(NC(=O)N[C@H](C)[C@H]2CC[C@@H](c3ccnc4ccc(F)cc43)CC2)cc1 [Example 6, 1-(4-ethoxyphenyl)-3-((R)-1-((1s,4S)-4-(6-fluoroquinolin-4-yl)cyclohexyl)ethyl)urea]
< 50 nM | C[C@@H](NC(=O)Nc1ccc(F)cc1)[C@H]1CC[C@@H](c2ccnc3ccc(F)cc32)CC1 [Example 8, 1-(4-fluorophenyl)-3-((R)-1-((1s,4S)-4-(6-fluoroquinolin-4-yl)cyclohexyl)ethyl)urea]
